Key:
Format in all cases: in vivo
[1] = system: Xanthium; experiment: Post-emergence test/greenhouse; conditions: post-emergence; for % damage, Xanthium: after three weeks
Protocol: (§1) Post-emergence Test Solvent: 5 parts by weight of acetone Emulsifier: 1 part by weight of alkylaryl polyglycol ether To produce a suitable preparation of active compound, 1 part by weight of active compound is mixed with the stated amount of solvent, the stated amount of emulsifier is added and the concentrate is diluted with water to the desired concentration. Test plants which have a height of 5-15 cm are sprayed with the preparation of the active compound in such a way as to apply the particular amounts of active compound desired per unit area. The concentration of the spray liquor is chosen so that the particular amounts of active compound desired are applied in 1000 l of water/ha. After three weeks, the degree of damage to the plants is rated in % damage in comparison to the development of the untreated control. The figures denote: [table]

[2] = system: Ipomoea; experiment: Post-emergence test/greenhouse; conditions: for % damage, Ipomoea: after three weeks
Protocol: as §1

[3] = system: Solanum; experiment: Post-emergence test/greenhouse; conditions: post-emergence; for % damage, Solanum: after three weeks
Protocol: as §1

[4] = system: Stellaria; experiment: Post-emergence test/greenhouse; conditions: for % damage, Stellaria: after three weeks
Protocol: as §1

[5] = system: Wheat; experiment: Post-emergence test/greenhouse; conditions: 60 g ai./ha; for % damage, Wheat: after three weeks
Protocol: as §1

[6] = system: Alopecurus; experiment: Post-emergence test/greenhouse; conditions: after three weeks
Protocol: as §1

[7] = system: Sorghum; experiment: Post-emergence test/greenhouse; conditions: post-emergence, after three weeks
Protocol: as §1

[8] = system: Lolium; experiment: Post-emergence test/greenhouse; conditions: after three weeks
Protocol: as §1

[9] = system: Solanum; experiment: Pre-emergence test/greenhouse; conditions: after three weeks
Protocol: (§2) Pre-emergence Test Solvent: 5 parts by weight of acetone Emulsifier: 1 part by weight of alkylaryl polyglycol ether To produce a suitable preparation of active compound, 1 part by weight of active compound is mixed with the stated amount of solvent, the stated amount of emulsifier is added and the concentrate is diluted with water to the desired concentration. Seeds of the test plants are sown in normal soil. After about 24 hours, the soil is sprayed with the preparation of the active compound in such a way as to apply the particular amounts of active compound desired per unit area The concentration of the spray liquor is chosen so that the particular amounts of active compound desired are applied in 1000 l of water/ha. After three weeks, the degree of damage to the plants is rated in % damage in comparison to the development of the untreated control. The figures denote: [table]

[10] = system: Chenopodium; experiment: Pre-emergence test/greenhouse; conditions: after three weeks
Protocol: as §2

[11] = system: Matricaria; experiment: Pre-emergence test/greenhouse; conditions: after three weeks
Protocol: as §2

[12] = system: Maize; experiment: Pre-emergence test/greenhouse; conditions: after three weeks
Protocol: as §2

[13] = system: Amaranthus; experiment: Pre-emergence test/greenhouse; conditions: after three weeks
Protocol: as §2

[14] = system: Alopecurus; experiment: Pre-emergence test/greenhouse; conditions: after three weeks
Protocol: as §2

[15] = system: Sorghum; experiment: Pre-emergence test/greenhouse; conditions: after three weeks
Protocol: as §2

[16] = system: Lolium; experiment: Pre-emergence test/greenhouse; conditions: after three weeks
Protocol: as §2

[17] = system: weeds; experiment: Post-emergence test; conditions: cf. Tables B-1 to B-4
Protocol: as §1

[18] = system: weeds; experiment: Pre-emergence test; conditions: cf. Tables A-1 to A-5
Protocol: as §2

[19] = 60 g ai./ha, rated after three weeks vs untreated control

Compound | % damage, Xanthium ([1]; 60 g ai./ha) | % damage, Ipomoea ([2]; 60 g ai./ha) | % damage, Solanum ([3]; 60 g ai./ha) | % damage, Stellaria ([4]; 60 g ai./ha) | % damage, Wheat [5] | % damage, Alopecurus ([6]; 60 g ai./ha) | % damage, Sorghum ([7]; 60 g ai./ha) | % damage, Lolium ([8]; 60 g ai./ha) | % damage, Solanum ([9]; 125 g ai./ha) | % damage, Chenopodium ([10]; 125 g ai./ha) | % damage, Matricaria ([11]; 125 g ai./ha) | % damage, Maize ([12]; 125 g ai./ha) | % damage, Amaranthus ([13]; 125 g ai./ha) | % damage, Alopecurus ([14]; 125 g ai./ha) | % damage, Sorghum ([15]; 125 g ai./ha) | % damage, Lolium ([16]; 125 g ai./ha) | activity against weeds [17] | activity against weeds [18] | % damage, Solanum ([9]; 60 g ai./ha) | % damage, Chenopodium ([10]; 60 g ai./ha) | further results
CCOc1nn(C(=O)NS(=O)(=O)c2c(OC(F)(F)F)cccc2SCC)c(=O)n1C [Example 6] | 95% | 90% | 95% | 95% | 5% | 60% | 70% | 50% | 100% | 100% | 100% | 0% | 100% | 100% | 80% | 100% | very strong activity | very strong activity | – | – | –
CCOc1nn(C(=O)NS(=O)(=O)c2c(OC)cccc2SCC)c(=O)n1C [Example 7] | – | 95% | 95% | 100% | 10% | 95% | 95% | 95% | 100% | 100% | 70% | 0% | 100% | 100% | 90% | 100% | very strong activity | very strong activity | – | – | –
CCOc1nn(C(=O)NS(=O)(=O)c2c(SCC)cccc2C(F)(F)F)c(=O)n1C [Example 11] | – | – | – | – | – | – | – | – | 100% | 100% | 100% | 10% | 100% | 100% | 100% | 90% | very strong activity | very strong activity | – | – | Xanthium, % damage [1, 19]: 90%; Ipomoea, % damage [2, 19]: 90%; Solanum, % damage [3, 19]: 70%; Stellaria, % damage [4, 19]: 90%; Wheat, % damage ([5]; rated after three weeks vs untreated control): 0%
COc1cccc(SC)c1S(=O)(=O)NC(=O)n1nc(OC)n(C)c1=O [Example 21] | – | 90% | 100% | 100% | – | 100% | 100% | 95% | – | – | – | – | – | – | – | – | very strong activity | very strong activity | 100% | 100% | % damage, Matricaria ([11]; 60 g ai./ha): 90%; % damage, Maize ([12]; 60 g ai./ha): 20%; % damage, Amaranthus ([13]; 60 g ai./ha): 100%; % damage, Alopecurus ([14]; 60 g ai./ha): 100%; % damage, Sorghum ([15]; 60 g ai./ha): 100%; % damage, Lolium ([16]; 60 g ai./ha): 100%
CCc1nn(C(=O)NS(=O)(=O)c2c(OC)cccc2SC)c(=O)n1C [Example 22] | – | 80% | 80% | 90% | – | 90% | 95% | 90% | 100% | – | 60% | 30% | 100% | 100% | 80% | 100% | very strong activity | very strong activity | – | – | –
CCSc1cccc(OC)c1S(=O)(=O)NC(=O)n1nc(OC)n(C)c1=O [Example 30] | – | – | – | – | – | – | – | – | – | – | – | – | – | – | – | – | very strong activity | very strong activity | 95% | 90% | % damage, Xanthium ([1]; 125 g ai./ha): 100%; % damage, Ipomoea ([2]; 125 g ai./ha): 90%; % damage, Solanum ([3]; 125 g ai./ha): 100%; % damage, Stellaria ([4]; 125 g ai./ha): 100%; % damage, Alopecurus ([6]; 125 g ai./ha): 95%; % damage, Sorghum ([7]; 125 g ai./ha): 100%; % damage, Lolium ([8]; 125 g ai./ha): 90%; % damage, Matricaria ([11]; 60 g ai./ha): 95%; % damage, Maize ([12]; 60 g ai./ha): 0%; % damage, Amaranthus ([13]; 60 g ai./ha): 95%; % damage, Alopecurus ([14]; 60 g ai./ha): 100%; % damage, Sorghum ([15]; 60 g ai./ha): 95%; % damage, Lolium ([16]; 60 g ai./ha): 100%
CCc1nn(C(=O)NS(=O)(=O)c2c(OC(F)(F)F)cccc2SC)c(=O)n1C [Example 34] | 95% | 80% | 95% | 80% | 20% | 90% | 100% | 70% | – | – | – | – | – | – | – | – | very strong activity | very strong activity | 95% | 90% | % damage, Maize ([12]; 60 g ai./ha): 20%; % damage, Amaranthus ([13]; 60 g ai./ha): 90%; % damage, Alopecurus ([14]; 60 g ai./ha): 100%; % damage, Sorghum ([15]; 60 g ai./ha): 90%; % damage, Lolium ([16]; 60 g ai./ha): 80%
CCOc1nn(C(=O)NS(=O)(=O)c2c(SC)cccc2SC)c(=O)n1C [Example 52] | 95% | 90% | 95% | 95% | – | 90% | 100% | 60% | – | – | – | – | – | – | – | – | very strong activity | – | – | – | –

Source: patent US6677277B1, “Substituted sulphonyl amino(thio)carbonyl compounds and their use as herbicides” (Bayer Aktiengesellschaft, priority 1996, dated 2004)
